{
  "source": "patent US20240366711A1",
  "about": "“PREPARATION CONTAINING CYCLIC PEPTIDE COMPOUND AND METHOD FOR PRODUCING SAME” (CHUGAI SEIYAKU KABUSHIKI KAISHA, priority 2021, published 2024)",
  "key": {"[1]": {"target": "Kras-SOS1 protein-protein interaction (Homo sapiens, UniProt P01116, G12D)", "sequence (P01116 whole entry G12D)": "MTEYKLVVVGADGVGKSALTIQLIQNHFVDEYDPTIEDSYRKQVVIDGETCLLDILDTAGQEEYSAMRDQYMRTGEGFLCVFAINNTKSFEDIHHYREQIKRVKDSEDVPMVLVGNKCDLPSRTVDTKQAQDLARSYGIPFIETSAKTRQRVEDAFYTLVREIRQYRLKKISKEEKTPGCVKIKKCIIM", "test": "Kras-SOS1 protein-protein interaction inhibition (KrasG12D-SOS PPI) using AlphaScreen", "type": "binding", "settings": "biotin-tagged human Kras (GDP-loaded) and His-tagged human SOS1, AlphaScreen", "experimental": "Kras-SOS1 protein-protein interaction inhibition (PPI) can be performed by a method known to those skilled in the art using a device, a reagent, or the like available from commercial suppliers. Specifically, biotin-tagged human Kras and His-tagged human SOS1 enzymes expressed in E. coli and loaded with GDP after purification were used to measure PPI by energy transfer from nickel-bound donor beads to streptavidin-bound acceptor beads. This measurement is performed by irradiating the donor beads with light of 680 nm to induce energy transfer to the acceptor beads via singlet oxygen, and detecting light of 520 to 620 nm from the acceptor beads. Based on the inhibition of the control group without Compound 1, 50% inhibitory concentration (IC50 value) was calculated."}, "[2]": {"tested_on": "Human pancreatic cancer strain AsPC-1", "test": "AsPC-1 cell growth inhibitory activity (AsPC-1CGI)", "type": "cell-based", "settings": "AsPC-1 cells, 96 hours, CellTiter-Glo; read-out: IC50 value (50% growth inhibition concentration)", "method": "AsPC-1 cell growth inhibitory activity can be performed by methods known to those skilled in the art using devices, reagents, cell lines, and the like available from commercial suppliers. Specifically, Compound 1 was serially diluted with dimethyl sulfoxide, then 200 nL of the dilution was dispensed into the U-bottom 96 well plate with Labcyte Echo. Human pancreatic cancer strain AsPC-1 was added to RPMI-1640 medium supplemented with 15% bovine fetal serum to prepare a cell suspension of 1000 cells/100 μL. The cell suspension was dispensed by 100 μL per well to Compound 1-added plates, and cultured in a 37° C., 5% carbon dioxide gas incubator. After 96 hours, 80 μL of CellTiter-Glo (Promega Corporation) was added to each well, and […] was measured. Cell growth inhibition (CGI) of the test compound was calculated as 50% growth inhibition concentration (IC50 value) from the growth inhibition rate of the case with addition of Compound I to the control without addition of Compound 1."}},
  "note": "Bridge positions count the residues as written; N and C are the ends. Square brackets hold non-standard residues; d marks the D form. Peptide text beside a SMILES is read from it. hPhe(3,5-F2-4-CF3) = N[C@@H](CCc1cc(F)c(C(F)(F)F)c(F)c1)C(=O)O; NEtPhe(4-Me) = CCN[C@@H](Cc1ccc(C)cc1)C(=O)O; NMeGly(cPent) = CN[C@H](C(=O)O)C1CCCC1; NMeD = CN[C@@H](CC(=O)O)C(=O)O; NMeL = CN[C@@H](CC(C)C)C(=O)O; NMeA = CN[C@@H](C)C(=O)O; Ac5c = NC1(C(=O)O)CCCC1; Aze = O=C(O)[C@@H]1CCN1; Sar = CNCC(=O)O",
  "data": [
    {"compound": "CC[C@H](C)[C@@H]1NC(=O)[C@H](CC(C)C)N(C)C(=O)C[C@@H](C(=O)N(C)C)N(C)C(=O)[C@H](C2CCCC2)N(C)C(=O)C2(CCCC2)NC(=O)[C@@H]2CCCN2C(=O)[C@H](CCc2cc(F)c(C(F)(F)F)c(F)c2)NC(=O)CN(C)C(=O)[C@H](Cc2ccc(C)cc2)N(CC)C(=O)[C@@H]2CCN2C(=O)[C@H](C)N(C)C1=O", "note": "[Compound 1, (5S,8S,11S,15S,18S,23aS,29S,35S,37aS)-8-((S)-sec-butyl)-18-cyclopentyl-29-(3,5-difluoro-4-(trifluoromethyl)phenethyl)-36-ethyl-11-isobutyl-N,N,5,6,12,16,19,33-octamethyl-35-(4-methylbenzyl)-4,7,10,13,17,20,23,28,31,34,37-undecaoxotetratriacontahydro-2H,4H-spiro[azeto[2,1-u]pyrrolo[2,1-i][1,4,7,10,13,16,19,22,25,28,31]undecaazacyclotetratriacontin-21,1′-cyclopentane]-15-carboxamide] ([NMeL]I[NMeA][Aze][NEtPhe(4-Me)][Sar][hPhe(3,5-F2-4-CF3)]P[Ac5c][NMeGly(cPent)][NMeD]-NMe2; lactam N-11)", "values": [
      {"measurement": "IC50", "setting": "[1]", "result": 1, "unit": "nM"},
      {"measurement": "IC50", "setting": "[2]", "result": "≤ 20", "unit": "nM"}
    ]}
  ]
}
